Results: patent US20230312530A1, “SALT OF RHO-ASSOCIATED PROTEIN KINASE INHIBITOR, SOLID FORM OF THE SALT, PREPARATION METHOD FOR SAME, AND USES THEREOF” (BEIJING TIDE PHARMACEUTICAL CO., LTD., priority 2020, published 2023)

Experiment: Pharmacokinetic test, single oral administration to beagle dogs
Assay type: in vivo
Settings: dog, blood, 20 mg/kg, once, 20 mpk, vehicle 0.5% CMC-Na
Protocol: The crystalline form I of compound A monohydrochloride monohydrate and compound A (vehicles for both samples were 0.5% CMC-Na) were respectively orally administered once to two groups of beagle dogs at a dose of 20 mpk, and blood samples were collected before the administration (0 h) and at 0.25, 0.5, 1, 2, 4, 6, 8 and 24 hours after the administration. The samples were processed and subjected to a chromatographic analysis.

Cn1c(C(=O)N2CC(F)(F)C2)cc2ccc(-c3nccc(Nc4ccc(-c5cn[nH]c5)cc4)n3)cc21 [Compound A, (6-(4-((4-(1H-pyrazol-4-yl)phenyl)amino)pyrimidin-2-yl)-1-methyl-1H-indol-2-yl)(3,3-difluoroazetidin-1-yl)methanone]
Cmax: 147 ng/mL | AUC(0-t) (sampling to 24 hours): 522 ng·h/mL
